Measurements from US20050222200A1, “AMIDE DERIVATIVES AS ION CHANNEL LIGANDS AND PHARMACEUTICAL COMPOSITIONS AND METHODS OF USING THE SAME” (Renovis, Inc., priority 2003, published 2005).

These compounds were tested against T1, VR1 (Homo sapiens, UniProt Q8NER1) (assay: High throughput calcium imaging assay of VR1 antagonists (Fura2, Flex Station, 96 well)). Conditions: Table 1 activity class.
T1 construct: expressed in transfected cells; host or cells: 293 cells ("293 neurons" [sic])
Type: cell-based
Note: test concentration or dose not given here.

T1 sequence (Q8NER1 whole entry, species assumed): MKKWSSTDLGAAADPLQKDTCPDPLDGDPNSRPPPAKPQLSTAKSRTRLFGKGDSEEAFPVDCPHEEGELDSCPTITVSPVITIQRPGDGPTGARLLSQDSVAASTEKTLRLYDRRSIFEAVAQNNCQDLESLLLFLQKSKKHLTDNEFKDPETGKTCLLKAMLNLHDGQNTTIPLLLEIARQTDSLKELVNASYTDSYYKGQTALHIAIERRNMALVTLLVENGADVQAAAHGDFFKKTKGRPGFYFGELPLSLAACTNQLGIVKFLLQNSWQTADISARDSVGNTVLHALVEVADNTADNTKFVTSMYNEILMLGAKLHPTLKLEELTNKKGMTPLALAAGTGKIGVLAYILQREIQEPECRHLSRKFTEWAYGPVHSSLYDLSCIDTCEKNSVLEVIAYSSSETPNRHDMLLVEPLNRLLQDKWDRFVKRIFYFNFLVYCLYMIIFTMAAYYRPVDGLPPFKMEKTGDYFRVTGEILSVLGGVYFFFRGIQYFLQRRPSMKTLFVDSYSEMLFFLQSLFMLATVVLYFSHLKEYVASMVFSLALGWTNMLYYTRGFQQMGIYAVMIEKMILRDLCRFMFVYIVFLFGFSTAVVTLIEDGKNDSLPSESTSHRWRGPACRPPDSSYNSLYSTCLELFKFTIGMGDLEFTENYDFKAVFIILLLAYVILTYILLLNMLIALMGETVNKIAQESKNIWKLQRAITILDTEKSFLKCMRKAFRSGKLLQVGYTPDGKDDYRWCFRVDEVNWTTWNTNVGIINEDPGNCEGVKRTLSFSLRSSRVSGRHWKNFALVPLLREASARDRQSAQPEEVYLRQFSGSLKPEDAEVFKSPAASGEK

| Compound | inhibition of calcium ion influx induced by capsaicin stimulation |
| --- | --- |
| CC(C)c1ccc(NC(=O)c2ccc(/C=C/C(C)(C)C)cc2)cc1 [Compound 41] | ++ (compound exhibited 25-50% inhibition of calcium ion influx induced by capsaicin stimulation) |
| CCCCc1ccc(NC(=O)c2ccc(/C=C/C(C)(C)C)cc2)cc1 [Compound 42] | + (compound exhibited 0-25% inhibition of calcium ion influx induced by capsaicin stimulation) |
| CC(C)(C)/C=C/c1ccc(C(=O)Nc2ccc(C3CCCCC3)cc2)cc1 [Compound 43] | + (compound exhibited 0-25% inhibition of calcium ion influx induced by capsaicin stimulation) |
| COc1cc(NC(=O)c2ccc(/C=C/C(C)(C)C)cc2)cc(C(F)(F)F)c1 [Compound 44] | ++++ (compound exhibited 75% or greater inhibition of calcium ion influx induced by capsaicin stimulation) |
| Cc1ccc2[nH]c(=O)c3ccc(/C=C/C(C)(C)C)cc3c2c1 [Compound 45] | ++++ (compound exhibited 75% or greater inhibition of calcium ion influx induced by capsaicin stimulation) |
| CC(C)(C)/C=C/c1ccc(C(=O)Nc2ccc3c(c2)OCO3)cc1 [Compound 47] | ++++ (compound exhibited 75% or greater inhibition of calcium ion influx induced by capsaicin stimulation) |
| Cc1cc(C)nc(NC(=O)c2ccc(/C=C/C(C)(C)C)cc2)c1 [Compound 48] | ++ (compound exhibited 25-50% inhibition of calcium ion influx induced by capsaicin stimulation) |
| CC(C)(C)/C=C/c1ccc(C(=O)NCc2ccncc2)cc1 [Compound 49] | ++++ (compound exhibited 75% or greater inhibition of calcium ion influx induced by capsaicin stimulation) |
| CC(C)(C)/C=C/c1ccc(C(=O)Nc2ccncc2)cc1 [Compound 52] | ++++ (compound exhibited 75% or greater inhibition of calcium ion influx induced by capsaicin stimulation) |
| CC(C)(C)/C=C/c1ccc(C(=O)Nc2cccnc2)cc1 [Compound 53] | ++++ (compound exhibited 75% or greater inhibition of calcium ion influx induced by capsaicin stimulation) |
| CC(C)(C)/C=C/c1ccc(C(=O)Nc2cc[nH]n2)cc1 [Compound 54] | + (compound exhibited 0-25% inhibition of calcium ion influx induced by capsaicin stimulation) |
| CC(C)(C)/C=C/c1ccc(C(=O)Nc2nccs2)cc1 [Compound 55] | + (compound exhibited 0-25% inhibition of calcium ion influx induced by capsaicin stimulation) |
| CC(C)(C)/C=C/c1ccc(C(=O)NC2CCC(Cc3ccccc3)CC2)cc1 (stereo not drawn) [Compound 56] | + (compound exhibited 0-25% inhibition of calcium ion influx induced by capsaicin stimulation) |
| CC(C)(C)/C=C/c1ccc(C(=O)NCCN2CCNCC2)cc1 [Compound 60] | + (compound exhibited 0-25% inhibition of calcium ion influx induced by capsaicin stimulation) |
| CN(C)c1cccc(NC(=O)c2ccc(/C=C/C(C)(C)C)cc2)c1 [Compound 61] | ++++ (compound exhibited 75% or greater inhibition of calcium ion influx induced by capsaicin stimulation) |
| CCN(CC)c1ccc(NC(=O)c2ccc(/C=C/C(C)(C)C)cc2)cc1 [Compound 62] | ++++ (compound exhibited 75% or greater inhibition of calcium ion influx induced by capsaicin stimulation) |
| Cc1ccnc(NC(=O)c2ccc(/C=C/C(C)(C)C)cc2)c1 [Compound 64] | + (compound exhibited 0-25% inhibition of calcium ion influx induced by capsaicin stimulation) |
| CN1CCC(NC(=O)c2ccc(/C=C/C(C)(C)C)cc2)CC1 [Compound 65] | + (compound exhibited 0-25% inhibition of calcium ion influx induced by capsaicin stimulation) |
| CC(C)(C)/C=C/c1ccc(C(=O)Nc2ccc3[nH]ccc3c2)cc1 [Compound 66] | ++ (compound exhibited 25-50% inhibition of calcium ion influx induced by capsaicin stimulation) |
| CC(C)(C)/C=C/c1ccc(C(=O)Nc2ccncn2)cc1 [Compound 67] | + (compound exhibited 0-25% inhibition of calcium ion influx induced by capsaicin stimulation) |
| Cc1cccnc1NC(=O)c1ccc(/C=C/C(C)(C)C)cc1 [Compound 68] | +++ (compound exhibited 50-75% inhibition of calcium ion influx induced by capsaicin stimulation) |
| CC(C)(C)/C=C/c1ccc(C(=O)Nc2ccc(Br)cn2)cc1 [Compound 69] | + (compound exhibited 0-25% inhibition of calcium ion influx induced by capsaicin stimulation) |
| CC(C)(C)/C=C/c1ccc(C(=O)Nc2ccc(C(F)(F)F)cn2)cc1 [Compound 70] | + (compound exhibited 0-25% inhibition of calcium ion influx induced by capsaicin stimulation) |
| CC(C)(C)/C=C/c1ccc(C(=O)Nc2ncc(C(F)(F)F)cc2Cl)cc1 [Compound 71] | + (compound exhibited 0-25% inhibition of calcium ion influx induced by capsaicin stimulation) |

| Compound | inhibition of calcium ion influx induced by capsaicin stimulation |
| --- | --- |
| CCc1ccnc(NC(=O)c2ccc(/C=C/C(C)(C)C)cc2)c1 [Compound 72] | + (compound exhibited 0-25% inhibition of calcium ion influx induced by capsaicin stimulation) |
| CC(C)(C)/C=C/c1ccc(C(=O)Nc2ccc(Cl)nc2)cc1 [Compound 74] | +++ (compound exhibited 50-75% inhibition of calcium ion influx induced by capsaicin stimulation) |
| COc1ccc(NC(=O)c2ccc(/C=C/C(C)(C)C)cc2)cn1 [Compound 75] | ++ (compound exhibited 25-50% inhibition of calcium ion influx induced by capsaicin stimulation) |
| CC(C)(C)/C=C/c1ccc(C(=O)Nc2ccnc(Cl)c2)cc1 [Compound 76] | ++++ (compound exhibited 75% or greater inhibition of calcium ion influx induced by capsaicin stimulation) |
| Cc1nccc(NC(=O)c2ccc(/C=C/C(C)(C)C)cc2)n1 [Compound 77] | + (compound exhibited 0-25% inhibition of calcium ion influx induced by capsaicin stimulation) |
| CC(C)(C)/C=C/c1ccc(C(=O)Nc2ccc3ncccc3c2)cc1 [Compound 78] | ++++ (compound exhibited 75% or greater inhibition of calcium ion influx induced by capsaicin stimulation) |
| CC(C)(C)/C=C/c1ccc(C(=O)NCc2cccnc2)cc1 [Compound 80] | + (compound exhibited 0-25% inhibition of calcium ion influx induced by capsaicin stimulation) |
| CN(C)c1ccc(CNC(=O)c2ccc(/C=C/C(C)(C)C)cc2)cc1 [Compound 81] | + (compound exhibited 0-25% inhibition of calcium ion influx induced by capsaicin stimulation) |
| COc1ccccc1CNC(=O)c1ccc(/C=C/C(C)C)cc1 [Compound 87] | + (compound exhibited 0-25% inhibition of calcium ion influx induced by capsaicin stimulation) |
| CC(C)/C=C/c1ccc(C(=O)NCc2ccco2)cc1 [Compound 88] | ++ (compound exhibited 25-50% inhibition of calcium ion influx induced by capsaicin stimulation) |
| CC(C)/C=C/c1ccc(C(=O)NCc2ccncc2)cc1 [Compound 93] | + (compound exhibited 0-25% inhibition of calcium ion influx induced by capsaicin stimulation) |
| CC(C)/C=C/c1ccc(C(=O)NC(c2ccccc2)c2ccccc2)cc1 [Compound 95] | ++ (compound exhibited 25-50% inhibition of calcium ion influx induced by capsaicin stimulation) |
| CC(C)/C=C/c1ccc(C(=O)NCCc2ccccc2Cl)cc1 [Compound 98] | + (compound exhibited 0-25% inhibition of calcium ion influx induced by capsaicin stimulation) |
| CC(C)/C=C/c1ccc(C(=O)Nc2ccncc2)cc1 [Compound 105] | ++ (compound exhibited 25-50% inhibition of calcium ion influx induced by capsaicin stimulation) |
| CC(C)/C=C/c1ccc(C(=O)Nc2cccnc2)cc1 [Compound 106] | ++ (compound exhibited 25-50% inhibition of calcium ion influx induced by capsaicin stimulation) |
| CC(C)/C=C/c1ccc(C(=O)NCC2CCCO2)cc1 (stereo not drawn) [Compound 109] | ++ (compound exhibited 25-50% inhibition of calcium ion influx induced by capsaicin stimulation) |
| CC(C)/C=C/c1ccc(C(=O)NCc2ccc3c(c2)OCO3)cc1 [Compound 111] | +++ (compound exhibited 50-75% inhibition of calcium ion influx induced by capsaicin stimulation) |
| CC(C)/C=C/c1ccc(C(=O)NCCN2CCOCC2)cc1 [Compound 112] | ++ (compound exhibited 25-50% inhibition of calcium ion influx induced by capsaicin stimulation) |
| CC(C)/C=C/c1ccc(C(=O)NCCc2ccc(S(N)(=O)=O)cc2)cc1 [Compound 116] | + (compound exhibited 0-25% inhibition of calcium ion influx induced by capsaicin stimulation) |
| COc1cc(CNC(=O)c2ccc(/C=C/C(C)C)cc2)cc(OC)c1OC [Compound 117] | + (compound exhibited 0-25% inhibition of calcium ion influx induced by capsaicin stimulation) |
| CC(C)/C=C/c1ccc(C(=O)NCc2ccccn2)cc1 [Compound 120] | + (compound exhibited 0-25% inhibition of calcium ion influx induced by capsaicin stimulation) |
| COc1ccc(CCNC(=O)c2ccc(/C=C/C(C)C)cc2)cc1OC [Compound 121] | +++ (compound exhibited 50-75% inhibition of calcium ion influx induced by capsaicin stimulation) |
| CC(C)/C=C/c1ccc(C(=O)NCCc2c[nH]c3ccccc23)cc1 [Compound 123] | + (compound exhibited 0-25% inhibition of calcium ion influx induced by capsaicin stimulation) |
| CC(C)/C=C/c1ccc(C(=O)NCCN2CCNCC2)cc1 [Compound 125] | ++++ (compound exhibited 75% or greater inhibition of calcium ion influx induced by capsaicin stimulation) |
